Reference: PMC9785441, “A Broad Spectrum Antiparasitic Activity of Organotin (IV) Derivatives and Its Untargeted Proteomic Profiling Using Leishmania donovani” (Pathogens, 2022)

Key:
[1] = tested on: N. fowleri (KUL strain) trophozoites; assay: N. fowleri trophozoite viability assay (CellTiter-Glo); type: cell-based, Naegleria fowleri; conditions: 48 h
Description: N. fowleri (KUL strain) was cultured in Nelson’s medium supplemented with 10% FBS and kept at 37 °C. For all experiments, trophozoites were harvested during the logarithmic phase of growth. Test compounds were serially diluted and transferred to a white solid bottomed 96-well tissue culture plate (E&K Scientific, Swedesboro, NJ, USA) followed by addition of 10,000 N. fowleri trophozoites in Nelson’s medium in a final volume of 100 µL and a final concentration of compounds ranging from 50 to 0.39 µM. Amphotericin B was used as positive control and assay plates were incubated for 48 h at 37 °C. Parasite viability was measured as described for E. histolytica and G. lamblia. EC50 values were obtained using the GraphPad Prism 9 Software.

B10R cells = assay: Cytotoxicity to B10R host cells (nuclei count in the amastigote assay); type: cell-based; conditions: mouse monocyte host cells, 72 h
Description: For the intracellular amastigote stage assay, L. donovani was incubated at a density of 1 × 10^6 parasites/mL for six days at 29 °C before infection to enrich the proportion of metacyclic promastigotes. B10R monocyte cell lines were cultured in RPMI supplemented with 10% FBS and 1%penicillin/streptomycin at 37 °C in 5% CO2. After 72 h, cells were counted with a hemocytometer and mixed with the six-day-old parasites. […] Plates were incubated at 37 °C and 5% CO2 for 72 h. Cultures were then fixed with 4% formaldehyde solution for 30 min and stained with 0.5 µg/mL DAPI (diamidino-2-phenylindole). Plates were then imaged using an ImageXpress Micro XLS automated high content imager (Molecular Devices, San Jose, CA, USA) using a 10× air objective. A custom image analysis module generated in ImageXpress was used to count the nuclei of host and parasite cells. EC50 values were obtained using the GraphPad Prism 9 Software with biological triplicates.

S. mansoni, adult worm = assay: S. mansoni adult worm ex vivo phenotypic screen (severity score); type: cell-based, Schistosoma mansoni; conditions: for S. mansoni, adult worm: least concentration at which a severity score of 4 was recorded: after 24 h, tested at 10, 5, 2.5 and 1.25 µM, EC50; for severity score, adult S. mansoni: maximum of 4
Text: The Naval Medical Research Institute (NMRI) isolate of S. mansoni was used. The parasite was cycled between Biomphalaria glabrata snails and male Golden Syrian hamsters (infected at 4–6 weeks of age) as intermediate and definitive hosts, respectively. Hamsters were infected and maintained in accordance with protocols approved by the Institutional Animal Care and Use Committee (IACUC) at the University of California San Diego. The acquisition, preparation and in vitro maintenance of S. mansoni have been described. Briefly, adult worms were harvested from hamsters 42 days post-infection in RPMI or DMEM, and washed five times prior to maintenance overnight at 37 °C and 5% CO2 in Basch medium containing 4% heat-inactivated FBS, 100 µg/mL streptomycin and 100 U/mL penicillin.
Ex vivo screens with adults employed 24-well flat-bottomed plates and approximately 5 males and 2–3 females/well. The complex and often dynamic phenotypic responses that the schistosome parasite is capable of were observed using a Zeiss Axiovert A1 inverted microscope at 24 h. Observations were classified using a constrained nomenclature that involves simple “descriptors” to convey changes in shape, motility and appearance, and the inability of the male worm to adhere to the bottom of the well, compared to DMSO controls. Each descriptor was given a value of 1 and these were added up to yield a “severity score” with a maximum of 4. Evidence of degeneracy or death was awarded a value of 4 as was damage to the tegument (parasite’s surface) on the understanding this would compromise survival in vivo. […] Data were averaged across two experiments for each compound concentration tested.

[2] = tested on: G. lamblia (WB strain) trophozoites; assay: G. lamblia trophozoite viability assay (CellTiter-Glo); type: cell-based, Giardia lamblia; conditions: 48 h
Description: Trophozoites of G. lamblia (WB strain) were maintained in vitro as described in TYI-S-33 medium supplemented with penicillin (100 U/mL) and streptomycin (100 µg/mL). Cells were harvested during the logarithmic phase of the growth for antiparasitic assessment. Test compounds were serially diluted and transferred to a white solid bottomed 96-well tissue culture plate (E&K Scientific, Swedesboro, NJ, USA) followed by addition of 5000 G. lamblia trophozoites for a final volume of 100 µL of TYI-S-33 medium and a final concentration of compounds ranging from 50.0 to 0.39 µM. Metronidazole was used as a positive control and assay plates were incubated for 48 h at 37 °C in the GasPak EZ Anaerobic Gas Generating Pouch System (VWR). Parasite viability was measured in triplicate using the CellTiter-Glo luminescence kit in an Envision plate reader. EC50 values were obtained using the GraphPad Prism 9 Software.

[3] = tested on: E. histolytica HM1:IMSS trophozoites; assay: E. histolytica trophozoite viability assay (CellTiter-Glo); type: cell-based, Entamoeba histolytica; conditions: 48 h
Description: Trophozoites of E. histolytica HM1:IMSS were maintained in vitro as described in TYI-S-33 medium supplemented with penicillin (100 U/mL) and streptomycin (100 µg/mL). Test compounds were serially diluted and transferred to a white solid bottomed 96-well tissue culture plate (E&K Scientific, Swedesboro, NJ, USA) followed by addition of 5000 E. histolytica trophozoites per well for a final volume of 100 µL TYI-S-33 medium and a final concentration of compounds ranging from 50 to 0.39 µM. Metronidazole were used as positive control and assay plates were incubated for 48 h at 37 °C. The plates maintained kept anaerobically using the GasPak EZ Anaerobic Gas Generating Pouch System (VWR). Parasite viability was measured in triplicate using the CellTiter-Glo luminescence kit (Promega G9243) in an Envision plate reader (Perkin Elmer, Waltham, MA, USA). EC50 values were obtained using GraphPad Prism 9 Software.

[4] = at all concentrations (10, 5, 2.5 and 1.25 µM), 24 h

CCC[CH2][Sn]([CH2]CCC)([O]C(=O)CCC(=O)Nc1ccc(OC)cc1)[O]C(=O)CCC(=O)Nc1ccc(OC)cc1 [MS26Bu2]
EC50 [1]: > 10 µM | CC50 (B10R cells): 1.06 µM | S. mansoni, adult worm: least concentration at which a severity score of 4 was recorded (S. mansoni, adult worm): 1.25 µM | severity score, adult S. mansoni (S. mansoni, adult worm; [4]): 4 | EC50 [2]: > 10 µM

COc1ccc(NC(=O)CCC(=O)[O-])cc1.[Na+] [MS26Na, sodium 4-(4-methoxyphenylamino)-4 oxobutanoate]
EC50 [1]: > 10 µM | CC50 (B10R cells): 4.55 µM | severity score, adult S. mansoni (S. mansoni, adult worm; 10 µM, 24 h): zero | S. mansoni, adult worm: least concentration at which a severity score of 4 was recorded (S. mansoni, adult worm): >10.0 µM | EC50 [2]: > 10 µM

COc1ccc(NC(=O)CCC(=O)[O][Sn]([CH3])([CH3])[CH3])cc1 [MS26Me3]
EC50 [1]: > 10 µM | CC50 (B10R cells): 4.87 µM | response of adult S. mansoni (S. mansoni, adult worm; 5 µM, 24 h): the same response as MS26Oct2 at 10 µM | severity score, adult S. mansoni (S. mansoni, adult worm; 10 µM, 24 h): lethal | S. mansoni, adult worm: least concentration at which a severity score of 4 was recorded (S. mansoni, adult worm): 10 µM | EC50 [2]: > 10 µM

C=[CH][Sn]([CH]=C)([O]C(=O)CCC(=O)Nc1ccc(OC)cc1)[O]C(=O)CCC(=O)Nc1ccc(OC)cc1 [MS26vin2]
EC50 [1]: > 10 µM | CC50 (B10R cells): > 20 µM | severity score, adult S. mansoni (S. mansoni, adult worm; 10 µM, 24 h): zero | S. mansoni, adult worm: least concentration at which a severity score of 4 was recorded (S. mansoni, adult worm): >10.0 µM | EC50 [2]: > 10 µM

CCC[CH2][Sn]([CH2]CCC)([CH2]CCC)[O]C(=O)CCC(=O)Nc1ccc(OC)cc1 [MS26Bu3]
EC50 [1]: 1.5 µM | CC50 (B10R cells): 0.17 µM | EC50 [3]: 8.7 µM | S. mansoni, adult worm: least concentration at which a severity score of 4 was recorded (S. mansoni, adult worm): 1.25 µM | severity score, adult S. mansoni (S. mansoni, adult worm; [4]): 4 | EC50 [2]: 1.03 µM

CCC[CH2][Sn]([Cl])([Cl])[O]C(=O)CCC(=O)Nc1ccc(OC)cc1 [MS26BuSnCl2]
EC50 [1]: > 10 µM | CC50 (B10R cells): 0.62 µM | severity score, adult S. mansoni (S. mansoni, adult worm; 10 µM, 24 h): zero | S. mansoni, adult worm: least concentration at which a severity score of 4 was recorded (S. mansoni, adult worm): >10.0 µM | EC50 [2]: > 10 µM

C[CH2][Sn]([CH2]C)([CH2]C)[O]C(=O)CCC(=O)Nc1ccc(OC)cc1 [MS26Et3]
EC50 [1]: 1.4 µM | EC50 [3]: 5.6 µM | severity score, adult S. mansoni (S. mansoni, adult worm; [4]): 4 | EC50 [2]: 8 µM

COc1ccc(NC(=O)CCC(=O)[O][Sn]([CH]2CCCCC2)([CH]2CCCCC2)[CH]2CCCCC2)cc1 [MS26Cy3]
EC50 [1]: 7.5 µM | CC50 (B10R cells): 0.11 µM | S. mansoni, adult worm: least concentration at which a severity score of 4 was recorded (S. mansoni, adult worm): 1.25 µM | severity score, adult S. mansoni (S. mansoni, adult worm; [4]): 4 | EC50 [2]: > 10 µM

COc1ccc(NC(=O)CCC(=O)O)cc1 [MS26, 4-(4-methoxyphenylamino)-4 oxobutanoic acid]
EC50 ([1]; Naegleria fowleri): > 10 µM | EC50 ([3]; Entamoeba histolytica): > 10 µM | severity score, adult S. mansoni (S. mansoni, adult worm; 10 µM, 24 h): zero | S. mansoni, adult worm: least concentration at which a severity score of 4 was recorded (S. mansoni, adult worm): >10.0 µM | EC50 ([2]; Giardia duodenalis): > 10 µM

COc1ccc(NC(=O)CCC(=O)[O][Sn]([c]2ccccc2)([c]2ccccc2)[c]2ccccc2)cc1 [MS26Ph3]
EC50 [1]: 3.2 µM | CC50 (B10R cells): 0.29 µM | S. mansoni, adult worm: least concentration at which a severity score of 4 was recorded (S. mansoni, adult worm): 1.25 µM | severity score, adult S. mansoni (S. mansoni, adult worm; [4]): 4 | EC50 [2]: 5.3 µM
